According to a compilation of properties of binary mixtures (doi:10.1016/j.molliq.2019.111925):

Experiment: xn = mol fraction of the nth substance listed
Details: 100 kPa

SMILES: CC(=O)[O-].CC[n+]1ccn(C)c1 + O
- speed of sound (293.15 K, x1 = 0.105): 1942 m/s
- speed of sound (293.15 K, x1 = 0.1988): 1959 m/s
- electrical conductivity (293.15 K, x1 = 0.2003): 1.59 S/m
- electrical conductivity (293.15 K, x1 = 0.3952): 0.833 S/m
- speed of sound (293.15 K, x1 = 0.4445): 1852 m/s
- speed of sound (293.15 K, x1 = 0.5602): 1776 m/s
- electrical conductivity (293.15 K, x1 = 0.5984): 0.49 S/m
- speed of sound (293.15 K, x1 = 0.7375): 1778 m/s
- speed of sound (293.15 K, x1 = 0.8521): 1762 m/s
- electrical conductivity (293.15 K, x1 = 0.9481): 0.228 S/m
- speed of sound (293.15 K, x2 = 0.0174): 1753 m/s
- speed of sound (298.15 K, x1 = 0.4445): 1839 m/s
- speed of sound (298.15 K, x1 = 0.5602): 1764 m/s
- speed of sound (298.15 K, x1 = 0.7375): 1765 m/s
- speed of sound (298.15 K, x1 = 0.8521): 1749 m/s
- electrical conductivity (298.15 K, x1 = 0.9481): 0.301 S/m
- electrical conductivity (298.15 K, x1 = 1): 0.299 S/m
- speed of sound (298.15 K, x1 = 1): 1740 m/s
- speed of sound (298.15 K, x2 = 0.0174): 1740 m/s
- speed of sound (303.15 K, x1 = 0.105): 1917 m/s
- speed of sound (303.15 K, x1 = 0.1988): 1932 m/s
- electrical conductivity (303.15 K, x1 = 0.3952): 1.28 S/m
- speed of sound (303.15 K, x1 = 0.4445): 1827 m/s
- speed of sound (303.15 K, x1 = 0.5602): 1753 m/s
- electrical conductivity (303.15 K, x1 = 0.5984): 0.776 S/m
- speed of sound (303.15 K, x1 = 0.7375): 1753 m/s
- speed of sound (303.15 K, x1 = 0.8521): 1736 m/s
- electrical conductivity (303.15 K, x1 = 0.9481): 0.392 S/m
- electrical conductivity (303.15 K, x1 = 1): 0.391 S/m
- speed of sound (303.15 K, x1 = 1): 1727 m/s
- speed of sound (303.15 K, x2 = 0.0174): 1726 m/s
- speed of sound (313.15 K, x1 = 0.1988): 1904 m/s
- electrical conductivity (313.15 K, x1 = 0.2003): 3.32 S/m
- electrical conductivity (313.15 K, x1 = 0.3952): 1.84 S/m
- speed of sound (313.15 K, x1 = 0.4445): 1803 m/s
- speed of sound (313.15 K, x1 = 0.5602): 1729 m/s
- electrical conductivity (313.15 K, x1 = 0.5984): 1.16 S/m
- speed of sound (313.15 K, x1 = 0.7375): 1729 m/s
- electrical conductivity (313.15 K, x1 = 0.7987): 0.819 S/m
- speed of sound (313.15 K, x1 = 0.8521): 1712 m/s
- electrical conductivity (313.15 K, x1 = 0.9481): 0.627 S/m
- electrical conductivity (313.15 K, x1 = 1): 0.625 S/m
- speed of sound (313.15 K, x1 = 1): 1701 m/s
- speed of sound (313.15 K, x2 = 0.0174): 1701 m/s
- speed of sound (323.15 K, x1 = 0.105): 1864 m/s
- electrical conductivity (323.15 K, x1 = 0.2003): 4.45 S/m
- electrical conductivity (323.15 K, x1 = 0.3952): 2.52 S/m
- speed of sound (323.15 K, x1 = 0.4445): 1779 m/s
- speed of sound (323.15 K, x1 = 0.5602): 1707 m/s
- speed of sound (323.15 K, x1 = 0.7375): 1705 m/s
- electrical conductivity (323.15 K, x1 = 0.7987): 1.19 S/m
- speed of sound (323.15 K, x1 = 0.8521): 1687 m/s
- electrical conductivity (323.15 K, x1 = 0.9481): 0.934 S/m
- electrical conductivity (323.15 K, x1 = 1): 0.929 S/m
- speed of sound (323.15 K, x1 = 1): 1676 m/s
- speed of sound (323.15 K, x2 = 0.0174): 1676 m/s
- speed of sound (333.15 K, x1 = 0.105): 1846 m/s
- speed of sound (333.15 K, x1 = 0.1988): 1848 m/s
- electrical conductivity (333.15 K, x1 = 0.2003): 5.75 S/m
- electrical conductivity (333.15 K, x1 = 0.3952): 3.32 S/m
- speed of sound (333.15 K, x1 = 0.5602): 1690 m/s
- electrical conductivity (333.15 K, x1 = 0.5984): 2.19 S/m
- speed of sound (333.15 K, x1 = 0.7375): 1682 m/s
- electrical conductivity (333.15 K, x1 = 0.7987): 1.64 S/m
- speed of sound (333.15 K, x1 = 0.8521): 1664 m/s
- speed of sound (343.15 K, x1 = 0.105): 1809 m/s
- speed of sound (343.15 K, x1 = 0.4445): 1731 m/s
- speed of sound (343.15 K, x1 = 0.5602): 1668 m/s
- speed of sound (343.15 K, x1 = 0.7375): 1659 m/s
- electrical conductivity (343.15 K, x1 = 0.9481): 1.76 S/m
- speed of sound (343.15 K, x2 = 0.0174): 1629 m/s
- electrical conductivity (353.15 K, x1 = 0.9481): 2.28 S/m
- electrical conductivity (353.15 K, x1 = 1): 2.28 S/m

SMILES: O + CC(=O)[O-].CC[n+]1ccn(C)c1
- speed of sound (293.15 K, x2 = 0): 1485 m/s
- speed of sound (298.15 K, x2 = 0): 1499 m/s
- speed of sound (303.15 K, x2 = 0): 1511 m/s
- speed of sound (333.15 K, x2 = 0): 1551 m/s
- speed of sound (343.15 K, x2 = 0): 1554 m/s
